Results published in paper PMC9235892 (Virulence, 2022).
Values joined by “and” are separate entries in the source; they are usually repeats but may differ in a detail not shown here. Identical values can stand only once. Like-named read-outs stand apart in the source and are kept apart here.

How the values were obtained:
SARS-CoV-2 [1] = test: microbe, parasite or virus in culture; format: cell-based; conditions: for EC50: Severe acute respiratory syndrome coronavirus 2, 60 h, read-out: half maximal effective concentration (EC50), 50% CPE inhibition
SARS-CoV-2 [2] = format: cell-based
SARS-CoV-2 [3] = format: cell-based; remark: listed apart in the source
SARS-CoV-2 [4] = format: cell-based; remark: listed apart in the source
SARS-CoV-2 [5] = format: cell-based; remark: listed apart in the source
SARS-CoV-2 [6] = format: cell-based; remark: listed apart in the source
SARS-CoV-2 [7] = format: cell-based; remark: listed apart in the source
HEK293T = test: MTT assay in HEK293T; format: cell-based, human; conditions: 10 µM and 32 µM
HuH7.5 = test: MTT assay in HuH7.5; format: cell-based, human; conditions: HuH7.5, 10 µM and 32 µM
Caco-2 = test: MTT assay in Caco-2; format: cell-based, human; conditions: Caco-2, 10 µM and 32 µM
Calu-3 = test: MTT assay in Calu-3; format: cell-based, human; conditions: Calu-3, 10 µM and 32 µM
SARS-CoV-2 B.1 = format: cell-based
SARS-CoV-2 [8] = system: SARS-CoV-2
[9] = system: intracellular cholesterol traffic; format: cell-based, African green monkeys
HEK293T cells = format: cell-based, human
Pharmacokinetics in mice = format: in vivo, CD1 mice
Method: In vivo pharmacokinetics assessment of LNB167 was performed at the Center of Innovation and Preclinical Studies (CIEnP, Brazil) under contract. LNB167 was tested in adult male CD1 mice (n = 5) bred under Specific Pathogen Free conditions at doses of 60 mg/kg (p.o.) or 6 mg/kg (I.V.). Results were reported according to ARRIVE (Animal Research Reporting In Vivo Experiments) [[22–24]]. The pharmacokinetics parameters were determined using the software Phoenix® WinNonlin® (version 7.0).

[10] = Potential toxicity of LNB167 in mice; format: in vivo, FVB male mice; conditions: oral gavage
Method: Adult FVB male mice bred and maintained at the Animal Facility of LOM at LNBio/CNPEM were weighed and divided into three groups (n = 5): vehicle (5% ethanol, 45% PEG400, 5% TWEEN®80, 45% saline), LNB167 60 mg/kg, and LNB167 300 mg/kg. Mice received one dose daily for 6 days by oral gavage. Animals were weighed and monitored daily for signs of potential compound toxicity including loss of movement, ruffled fur, ear position, eye shape, and death.

SARS-CoV-2 [11] = conditions: in vivo

For C[C@]12CC[C@H](OC[C@H](O)CN3CCOCC3)CC1CCC1C2CC[C@]2(C)C(=O)CCC12 (some centres unmarked) [LNB168], which “half maximal effective concentration (EC50), 50% CPE inhibition” value (SARS-CoV-2 [1]) is on record?
Its value is “mid micromolar range”.

What does the source list for CN1CCN(CCC(=O)O[C@H]2CC[C@@]3(C)C(CCC4C3CC[C@]3(C)C(=O)CCC43)C2)CC1 (some centres unmarked) [LNB171]?
half maximal effective concentration (EC50), 50% CPE inhibition (SARS-CoV-2 [1]): mid micromolar range; effect on viral load assessed by plaque assay (SARS-CoV-2 [2]): no effect; effect on viral load assessed by RT-qPCR (SARS-CoV-2 [3]): no effect; toxicity, MTT assay (Vero CCL81 cells): not cytotoxic

For C[C@]12CC[C@H](OC(=O)CN3CCOCC3)CC1CCC1C2CC[C@]2(C)C(=O)CCC12 (some centres unmarked) [LNB149], which “half maximal effective concentration (EC50), 50% CPE inhibition” value (SARS-CoV-2 [1]) is on record?
Its value is “mid micromolar range”.

With CN1CCN(CC(=O)O[C@H]2CC[C@@]3(C)C(CCC4C3CC[C@]3(C)C(=O)CCC43)C2)CC1 (some centres unmarked) [FFNBio42] as the molecule, how does the EC50 (SARS-CoV-2 [1]) read?
Its EC50 is 4.7 µM.

What about the “fold reduction in infectious virus (plaque assay) vs vehicle-treated control” value (SARS-CoV-2 [2]) of the same molecule?
Its value is 10 fold.

What about the “fold reduction in viral RNA levels (RT-qPCR) vs vehicle-treated control” value (SARS-CoV-2 [3]) of the same molecule?
Its value is 10 fold.

And the “toxicity, MTT assay” value (Vero CCL81 cells)?
The value was “not cytotoxic”.

Which EC50 (SARS-CoV-2 [1]) does the source give for CN1CCN(C[C@H](O)CO[C@H]2CC[C@@]3(C)C(CCC4C3CC[C@]3(C)C(=O)CCC43)C2)CC1 (some centres unmarked) [LNB167] here?
Its EC50 is 0.9 µM.

What about the “effect on viral load assessed by plaque assay” value (SARS-CoV-2 [2]) of the same molecule?
Its value is “potent inhibition of SARS-CoV-2 replication”.

And the “fold reduction in infectious virus (plaque assay) vs vehicle-treated control” value (SARS-CoV-2 [2])?
The value was 1000 fold.

What about the “fold reduction in viral RNA levels (RT-qPCR) vs vehicle-treated control” value (SARS-CoV-2 [3]) of the same molecule?
Its value is ~100 fold.

What about the “effect on levels of viral RNA (RT-qPCR)” value (SARS-CoV-2 [4]) of the same molecule?
The value was “did not reduce levels of viral RNA”.

What about the “fold reduction in viral load (RT-qPCR, viral RNA)” value (SARS-CoV-2 [5]) of the same molecule?
The value was ≤ 1000 fold.

What about the “effect on SARS-CoV-2 viral load” value (SARS-CoV-2 [6]) of the same molecule?
Its value is “no effect”.

And the “effect on SARS-CoV-2 viral load” value (SARS-CoV-2 [7])?
Its value is “no effect”.

And the “toxicity, MTT assay” value (HEK293T)?
The value was “not toxic”.

And the “toxicity, MTT assay” value (HuH7.5)?
Its value is “not toxic”.

And the “toxicity, MTT assay” value (Caco-2)?
Its value is “not toxic”.

What about the “toxicity, MTT assay” value (Calu-3) of the same molecule?
Its value is “not toxic”.

And the “fold reduction in infectious viral progeny (plaque assay), time of addition” value (SARS-CoV-2 B.1)?
The value was “up to 100 fold”.

And the “fold reduction in viral load (RT-qPCR), time of addition” value (SARS-CoV-2 B.1)?
The value was “approximately 10 fold”.

And the “time of addition after infection giving maximum antiviral activity” value (SARS-CoV-2 B.1)?
The value was ≤ 8 h.

And the “virucidal activity against SARS-CoV-2” value (SARS-CoV-2 [8])?
The value was “neither LNB167 nor LNB169 were virucidal”.

And the “cholesterol distribution, filipin III staining” value [9]?
The value was “formation of puncta that were identical to those observed in U18666A-treated cells”.

And the “up-regulated pathways (RNASeq), SARS-CoV-2-infected cells” value (HEK293T cells)?
Its value is “upregulation of multiple pathways involving metabolism and biosynthesis of both membrane lipids and cholesterol”.

What about the “up-regulated pathways (RNASeq), non-infected cells” value (HEK293T cells) of the same molecule?
Its value is “upregulation of membrane lipids and cholesterol metabolic and biosynthetic pathways”.

And the bioavailability (Pharmacokinetics in mice; male, CD1, mouse, plasma, oral, 60 mg/kg p.o. (6 mg/kg I.V.))?
The bioavailability was 66.3%.

And the half-life (Pharmacokinetics in mice; male, CD1, mouse, plasma, po, single dose of 60 mg/kg given orally)?
The half-life was 2.67 h.

What about the volume of distribution (Pharmacokinetics in mice; single dose of 60 mg/kg given orally) of the same molecule?
The volume of distribution was 63.17 L/kg.

And the maximum plasma concentration (Pharmacokinetics in mice; single dose of 60 mg/kg given orally, 60 mg/kg)?
The maximum plasma concentration was 498.69 ng/ml and 1.1 µM.

And the signs of toxicity ([10]; 60 mg/Kg once a day for 6 days)?
Its signs of toxicity is “No signs of toxicity”.

What about the signs of toxicity ([10]; 300 mg/Kg once a day for 6 days) of the same molecule?
The signs of toxicity was “moderate weight loss and ruffled fur”.

And the “toxicity, MTT assay” value (Vero CCL81 cells; 10 µM and 32 µM, Vero CCL81)?
The value was “not cytotoxic”.

And the “viral load recovered from infected mouse lungs (plaque assay or RT-qPCR)” value (SARS-CoV-2 [11])?
The value was “did not reduce the viral load”.

What about the “histological analysis of lung sections” value (SARS-CoV-2 [11]; mouse) of the same molecule?
Its value is “alterations in tissue architecture that were more pronounced in the context of SARS-CoV-2 infection”.

And the “protection from disease development induced by SARS-CoV-2” value (SARS-CoV-2 [11]; mouse)?
Its value is “did not protect from disease development”.

What about the average weight loss (SARS-CoV-2 [11]; mouse, 120 mg/kg) of the same molecule?
The average weight loss was 15%.

Which “cytoprotective activity against SARS-CoV-2” value (SARS-CoV-2 [1]) does the source give for C[C@]12CC[C@H](O)CC1CCC1C2CC[C@]2(C)C(=O)[C@H](Br)CC12 (some centres unmarked) [16a-bromoepiandrosterone, reference compound] here?
Its value is “did not display cytoprotective activity”.

What does the source list for C[C@]12CC[C@H](OCCS(=O)(=O)N3CCOCC3)CC1CCC1C2CC[C@]2(C)C(=O)CCC12 (some centres unmarked) [FFNBio41]?
EC50 (SARS-CoV-2 [1]): 5 µM; effect on viral load assessed by plaque assay (SARS-CoV-2 [2]): no effect; toxicity, MTT assay (Vero CCL81 cells): not cytotoxic

Which results are given for CN1CCN(C[C@@H](O)CO[C@H]2CC[C@@]3(C)C(CCC4C3CC[C@]3(C)C(=O)CCC43)C2)CC1 (some centres unmarked) [LNB169]?
EC50 (SARS-CoV-2 [1]): 3.8 µM; effect on viral load assessed by plaque assay (SARS-CoV-2 [2]): potent inhibition of SARS-CoV-2 replication; fold reduction in infectious virus (plaque assay) vs vehicle-treated control (SARS-CoV-2 [2]): 1000 fold; fold reduction in viral RNA levels (RT-qPCR) vs vehicle-treated control (SARS-CoV-2 [3]): ~100 fold; effect on levels of viral RNA (RT-qPCR) (SARS-CoV-2 [4]): did not reduce levels of viral RNA; fold reduction in viral load (RT-qPCR, viral RNA) (SARS-CoV-2 [5]): approximately 100 fold; effect on SARS-CoV-2 viral load (SARS-CoV-2 [6]): no effect; effect on SARS-CoV-2 viral load (SARS-CoV-2 [7]): no effect; toxicity, MTT assay (HEK293T): not toxic; toxicity, MTT assay (HuH7.5): not toxic; toxicity, MTT assay (Caco-2): not toxic; toxicity, MTT assay (Calu-3): not toxic; fold reduction in infectious viral progeny (plaque assay), time of addition (SARS-CoV-2 B.1): up to 100 fold; fold reduction in viral load (RT-qPCR), time of addition (SARS-CoV-2 B.1): approximately 10 fold; time of addition after infection giving maximum antiviral activity (SARS-CoV-2 B.1): ≤ 8 h; virucidal activity against SARS-CoV-2 (SARS-CoV-2 [8]): neither LNB167 nor LNB169 were virucidal; toxicity, MTT assay (Vero CCL81 cells; 10 µM and 32 µM, Vero CCL81): not cytotoxic

Which “half maximal effective concentration (EC50), 50% CPE inhibition” value (SARS-CoV-2 [1]) does the source give for C[C@]12CC[C@H](OC[C@@H](O)CN3CCOCC3)CC1CCC1C2CC[C@]2(C)C(=O)CCC12 (some centres unmarked) [LNB166] here?
Its value is “mid micromolar range”.

For CCN(CC)CCCC(C)Nc1ccnc2cc(Cl)ccc12 (centres unmarked) [Chloroquine, reference compound], which EC50 (SARS-CoV-2 [1]) is on record?
Its EC50 is 5.9 µM.

For CCN(CC)CCO[C@H]1CC[C@@]2(C)C(=CC[C@@H]3[C@@H]2CC[C@]2(C)C(=O)CC[C@@H]32)C1.Cl [U18666A, reference compound], which “cholesterol distribution, filipin III staining” value [9] is on record?
The value was “formation of puncta inside cells”.

Which “cytoprotective activity against SARS-CoV-2” value (SARS-CoV-2 [1]) does the source give for C[C@]12CC[C@H](O)C[C@@H]1CC[C@@H]1[C@@H]2CC[C@]2(C)C(=O)CC[C@@H]12 [Epiandrosterone, reference compound] here?
The value was “did not display cytoprotective activity”.
